What was measured:
[1] = system: male Sprague Dawley CD rats; test: Reversal of MK-801 induced deficits in PPI; conditions: data generated within the applicant's lab, doses not given
[2] = system: male Sprague-Dawley rats; assay type: in vivo, rat; conditions: for Sexual dysfunction (MED mg/kg): male, Sprague-Dawley, rat, in vivo, 30 min; for reduction of the number of penile erections relative to vehicle treated animals: sexually experienced male rats, female stimuli present, i.p. once daily
Description: In summary, male rats were allowed access to sexually receptive females during a single overnight mating session and then administered antidepressants with varying degrees of clinically reported sexual deficits. […] Animals
Intact male Sprague-Dawley rats (Charles River Laboratories) arrived at 7 weeks of age and were allowed to habituate for one week prior to sexual experience or behavioral testing. Rats were group housed in same-sex colony rooms with food and water provided ad libitum. All animals were maintained under a 12:12 light-dark cycle (lights on at 6:00 am) with behavioral experiments performed during the light hours beginning at noon.
Ovariectomized female Long-Evans rats (Charles River Laboratories) were individually housed and brought into behavioral estrus weekly by subcutaneous injection of 25 ug 17-B estradiol benzoate in 0.1 ml corn oil 48 hours prior to testing, followed by subcutaneous administration of 2.5 mg progesterone in 0.1 ml corn oil 4 to 6 hours before testing.
For subjects assigned into the sexually experienced group, the following procedures were performed. Individual male rats were placed into the home cage of a a sexually receptive female for overnight mating sessions. The cage was a Plexiglas cage measuring 10×12 inches, with food and water ad libitum. Mating pairs were randomly assigned. […] Following overnight mating sessions, males and females were separated from each other and placed back into same-sex colony rooms where they were group-housed until the time of behavioral testing.
To determine the effects of female stimuli on non-contact penile erections, sexually receptive females were brought into the testing room 30 minutes prior to the start of behavioral testing in order to provide female visual, olfactory, and auditory stimuli for males. The testing arena for observing non-contact penile erections in male rats consisted of an empty rat size Plexiglas cage (11×10 inches) containing no bedding, with an aerated plastic lid and a total ceiling height of 12 inches. […] A penile erection consisted of observation of the male rat in a hunched position grasping the penis with the forepaws and followed by a series of pelvic thrusts. The number of penile erections were quantified over a 30 minute observation session.
Following sexual experience (as described above), male subjects (n=8 per group) were administered either 10 mg/kg/day fluoxetine or saline vehicle for 14 days. On the 14th day, fluoxetine treatment was co-administered with either saline or apomorphine (0.1-0.3 mg/kg, sc) or yohimbine (0.1-0.3 mg/kg, sc) or sildenafil (0.1-0.3 mg/kg, sc) in separate experiments. Non-contact penile erections were evaluated in 30 minute test sessions in the presence of sexually receptive female rats.
Fluoxetine HCl (Tocris), desipramine (Sigma, St. Louis, Mo.) and bupropion HCl (Toronto Research Chemicals, Canada) were dissolved in 0.9% sterile saline vehicle and injected intraperitoneally (i.p.) once daily. On the day of behavioral testing, antidepressants were administered intraperitoneally (i.p.) as one hour pretreatments. For reversal experiments, apomorphine (Sigma, St. Louis, Mo.), yohimbine (Sigma, St. Louis, Mo.) or sildenafil (Toronto Research Chemicals, Canada) were used. Apomorphine was dissolved in 0.9% sterile saline vehicle and injected subcutaneously (s.c.). Yohimbine was dissolved in dH2O facilitated with 1N HCl, followed by addition of 1N NaOH for titration (pH=7) and administered intraperitoneally (i.p.). Sildenafil was dissolved in 0.9% sterile saline vehicle and administered intraperitoneally (i.p.). With the exception of fluoxetine which was administered in a dose volume of 2 ml/kg, all other test compounds were administered in a dose volume of 1 ml/kg. On the day of behavioral testing, both fluoxetine and the reversal agent (apomorphine, yohimbine, or sildenafil) were co-administered as 0 minute pretreatments. […]

[3] = Antidepressant-like effects (MED), Table 2; assay type: in vivo; conditions: minimal effective dose
Description: Table 2, below, summarizes the dose at which antidepressant-like effects are observed, the dose at which sexual dysfunction occurs, and the therapeutic window.

| SMILES | attenuation of MK-801 induced deficit in PPI (reference antipsychotics) [1] | Sexual dysfunction (MED mg/kg) [2] [mg/kg] | reduction of the number of penile erections relative to vehicle treated animals [2] [%] | Antidepressant-like effects (MED mg/kg) [3] [mg/kg] |
| --- | --- | --- | --- | --- |
| Cc1nc2n(c(=O)c1CCN1CCC(c3noc4cc(F)ccc34)CC1)CCCC2 [risperidone, reference compound] | will attenuate | – | – | – |
| CNCCC(Oc1ccc(C(F)(F)F)cc1)c1ccccc1 (stereo not shown) [Fluoxetine, fluoxetine] | – | 10 | 72 | 10 |
| CNCCCN1c2ccccc2CCc2ccccc21 [Desipramine, desipramine] | – | 10 | 43 | 10 |
| CC(NC(C)(C)C)C(=O)c1cccc(Cl)c1 (stereo not shown) [Bupropion, bupropion] | – | >20 | 9 | 20 |
